Key:
[1] = test system: PDZ (MBP-PDZ immobilized on gold nanorods); experiment: urea-mediated unfolding/refolding of immobilized PDZ, read out by peptide binding kinetics; assay type: biochemical
Excerpt: Next, we employed the platform to monitor protein unfolding and refolding. […] After validating that the observed event rate decrease was not caused by protein dissociation from the GNPs (Supplementary Figure 8), we next characterized the concentration dependency of this urea-mediated PDZ unfolding (Figure B). The protein-peptide binding frequency, and thus PDZ conformational integrity, clearly decreases in a urea concentration-dependent manner.
3 Urea-mediated PDZ denaturation. […] (B) Left/blue data points: PDZ-peptide binding event frequencies at different urea concentrations. To prevent cumulative and/or time-mediated influences, measurements at each concentration were performed with a fresh sample. Error bars represent the effect of each sample’s Poisson distribution of the number of proteins per particle on the average binding frequencies. Right/green data points: PDZ-peptide binding event frequencies of a similar sample, after incubation at 6.4 M urea and subsequent removal thereof. (C) Bright-time distribution of the PDZ-peptide binding events at different urea concentrations. […] The 95% confidence interval is obtained by propagating 1.96 SE of the corresponding tb fits.
5 minute steps at 5000 rpm each). After each centrifugation step, supernatants were discarded, and pellets were re-dissolved (200 µL of 25 mM HEPES (pH 7.4) after the first spin step, 200 µL of milliQ after step 2 and 3, and 150 µL of 10 mM HEPES (pH 7.4) + 0.0025 w/v% Tween20 + 1 mM MgCl2 after step 4.
For each reaction, 5.0 µL of protein-DNA conjugate was added to a 150 µL particle solution as prepared above. Added protein-DNA concentrations varied from 250 pM to 2 µM depending on the desired number of proteins per particle.
Reactions were either incubated for 2 hours at room temperature (~21 °C), or overnight in the fridge (4 °C). After incubation, 1.5 µL of 20 w/v% BSA in PBS was added to each sample, following an additional 15 minutes of incubation.
Next, samples were washed using 4 centrifugal steps (5 minutes at 5000 rpm and 4 °C each). After each spin step, supernatants were removed, and particles were re-suspended using 10 mM HEPES pH 7.4, 0.0025 w/v% Tween20, 1 mM MgCl2, 0.2 w/v% BSA (150 µL after step 1-3, 75 µL after step 4).
Functionalized gold nanoparticle concentrations were determined through absorption measurements on a Thermo Scientific Nanodrop 2000 apparatus. Fluorescence spectroscopy-based protein quantifications were performed through fluorescence measurements on a Varioskan Lux platereader (500 nm excitation, 12nm bandwidth, low dynamic range, […]
Sample preparation for microscopy measurements
Glass microscopy slides (Menzel #1.5 24*40 mm) were sonicated in MeOH for 15 minutes, and blown dry using nitrogen gas afterwards. Next, slides were plasma treated for 1 minute. Imaging spacer stickers were added to the cleaned glass slides. Particles were diluted to OD = 0.1 (at 650 nm, 1 cm pathlength) in PBS, and for each sample 50 µL was pipetted into the imaging spacer. Samples were incubated for at least 5 minutes, after which the majority of particles were firmly immobilized. Depending on the measurement, samples were used as described, or briefly washed with PBS (unfolding/refolding measurements).
Fluorescence microscopy measurements
Samples were measured through fluorescence microscopy. The utilized setup’s main components consi sted of a Coherent OBIS 637 nm laser, Nikon eclipse Ti2 microscope body, Apo TIRF 60x 1.49 NA DIC N2 Oil objective, and Prime BSI Express CMOS camera. All measurements were performed using TIRF illumination. Sample and imaging conditions […]
Table S.2. Sample and imaging conditions per experiment.
Experiment/associated Laser power (mW): Exposure (ms): Labeled peptide
Figure(s): concentration (nM):
Kinetic analysis – 50 20 1 dissociation kinetics. Figure
Kinetic analysis: association 50 60 1 […]
Peptide and urea solutions were all prepared in PBS. […]

[2] = test system: ATTO 532-PDZ decorated gold nanoparticles; experiment: stability of GNP-protein conjugate to urea (fluorescence of ATTO 532-PDZ on particles); conditions: 4 M urea, 15 minutes, then exchanged for PBS; five particles, 532 nm laser
Procedure: Supplementary Figure 7. Fluorescence polarization curve of the interaction between MBP-PDZ (no DNA attached) ௣ ) + Aଶ , yields a Kd (x0) of 0.2 µM (p set to 1 and ATTO 655-labeled peptide. The fit (y =((Aଵ −Aଶ )/(1 + ቀ[௣௥௢௧௘௜௡ ]௄೏ ቁ to represent 1:1 binding). Measurement performed with 10 nM peptide in 10 mM HEPES pH 7.4, 150 mM NaCl, 0.1 v/v% Tween 20, 0.1 w/v% BSA, 1 mM DTT.
Supplementary Figure 8. Mean fluorescence intensities of five ATTO 532- PDZ decorated gold nanoparticles before and after exposure to 4 M urea. Immobilized particles were briefly imaged with a 532 nm laser before exposure to urea, with bare PBS in the bulk solution. Next, the laser was turned off, urea was added towards 4 M, and the sample was incubated for 15 minutes. Afterwards, the urea solution was exchanged for fresh PBS, the laser turned on, and fluorescence intensities measured again.
ATTO 532-labeled PDZ proteins remained on the particles.
(also on this page, place not known: inte raction =( (Aଵ −A ଶ)/(1 ቀ [௣௥௢௧௘௜௡] ௄೏ 350Polarization (mP) P1, before P1, after P2, before P2, after P3, before P3, after P4, before P4, after P5, before P5, after 8000Mean fluorescence intensity (counts))

[3] = target: T1, Erbin PDZ (MBP-PDZ immobilized on gold nanorods via DNA) (Homo sapiens, UniProt Q96RT1); experiment: single-molecule plasmon-enhanced fluorescence binding kinetics of PDZ-peptide interaction
T1 construct: Since neither the utilized PDZ domain nor MBP contains natural cysteines; single introduced cysteine in the linker between MBP and PDZ (handle for DNA coupling); host or cells: E. coli BL21(DE3)

PDZ = conditions: reference number not printed at place (probably ref 20), cited from earlier work
Excerpt: From a double-exponential fit we extracted characteristic bound-state lifetimes of 16 ± 1 and 83 ± 16 ms, corresponding to k off values of 61 ± 5 and 12 ± 3 s^–1. The slow dissociation rate constant is similar to previously reported values for the same interaction with immobilized peptides (k off ≈ 6.3 s^–1). […] The underlying molecular mechanism leadi ... || In order to quantify association kinetics and related particle-to-particle differences, analysis is based on the average dark time (t d ) in between events (unbound-state lifetime). Together with the number of proteins per particle (n), and the concentration of the labeled peptide solution (c i ), it follows that kon=1/tdcin . The binding event frequency’s dependency on the number of proteins per particle was assessed through several measurements, using particle preparations with different average numbers of proteins per particle (Figure .D). Herein, a control sample (DNA decorated, 0 proteins ...

[4] = test system: PDZ directly conjugated to gold nanorods; experiment: peptide binding to PDZ conjugated directly to gold nanorods via a cysteine linker; conditions: direct conjugation to gold nanorods via cysteine linker, no DNA
Excerpt: In this study we utilize single-crystalline GNPs (nanorods) to probe protein–protein interactions at the single-molecule level. To facilitate single-molecule studies the particles are immobilized onto a glass coverslip to enable the imaging of single nanoparticles. Before immobilization, we conjugated protein (PDZ) to the nanoparticles using a solution-phase protocol. We initially tried direct conjugation of PDZ to the gold nanorods via a cysteine linker. […] We then developed a DNA-mediated conjugation approach. This approach, through the rigid nature of double-stranded DNA, allows for control over the time-average distance between the proteins and the GNPs. This controlled distance is crucial, as it prevents a direct interaction between the protein and the gold, thereby preventing denaturation. Moreover, it still allows the proteins to be placed close to the gold nanorods, which facilitates potent fluorescence enhancement of the fluorescently labeled binding partners (Supplementary Figure 1).

[5] = unspecific binding of labeled peptide to DNA-coated gold nanoparticles without protein (negative control); conditions: DNA decorated, 0 proteins per particle; 60 ms exposure, 1 nM labeled peptide in PBS
Excerpt: 2 Characterization of the PDZ-peptide binding interactions. (A) Typical microcopy FOV of the immobilized gold nanoparticles. Each FOV (∼ 43 μm by 43 μm) typically contains around 100 stochastically immobilized particles, yielding average interparticle distances of several micrometers. A time trace of one of the gold nanoparticles is shown, on which the peptide–protein binding events can be seen as fluorescence bursts. An expanded region of the time trace showcases a few examples of individual bright-times and dark-times. (B) Typical signals obtained from peptide binding on a gold nanorod (blue) and on the glass (red). (C) Plot depicting the distribution of bright times (bound-state lifetimes) of the protein-peptide interactions, based on all recorded particles. […]
In order to quantify association kinetics and related particle-to-particle differences, analysis is based on the average dark time (t d ) in between events (unbound-state lifetime). […] The binding event frequency’s dependency on the number of proteins per particle was assessed through several measurements, using particle preparations with different average numbers of proteins per particle (Figure .D). […] Dim fluorescence signals that would have been lost in unenhanced studies can now readily be detected, giving rise to more accurate event detection, and thus, a more representative k on value.

T1 sequence (Q96RT1 1321-1410 limits assumed): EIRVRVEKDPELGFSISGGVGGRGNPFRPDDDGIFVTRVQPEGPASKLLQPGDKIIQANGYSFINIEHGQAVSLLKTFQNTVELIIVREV

Row | Molecule | average PDZ-peptide binding event frequency at 0.2 M urea ([1]; 0.2 M urea, 2 nM labeled peptide in PBS, within Poisson distribution) | time for refolding of PDZ after urea removal ([1]; after 6.4 M urea, time required for fluid exchange and initiation of imaging) | k off values at different urea concentrations ([1]; based on dominant short lifetimes of double exponential fits, 2 nM labeled peptide in PBS, 40 ms exposure) | bound-state lifetimes for increasing urea concentrations ([1]; bright time distributions, 2 nM labeled peptide in PBS, 40 ms exposure) | PDZ-peptide binding frequency after removal of urea (refolding) ([1]; pre-incubation with 6.4 M urea for 20 minutes, then washed, 2 nM labeled peptide in PBS) | occurrence of PDZ-peptide interactions at 4.0 M urea ([1]; time traces of a particle before and after 4.0 M urea, 2 nM labeled peptide in PBS) | fluorescence intensity of ATTO 532-PDZ decorated particles after urea exposure [2] | distribution of bound-state lifetimes ([3]; all particles (Figure 2C), also on single particles (Supplementary Figure 6)) | characteristic bound-state lifetime, short component ([3]; double-exponential fit of bright times, all recorded particles, 20 ms exposure, 50 mW 637 nm laser, TIRF, 1 nM labeled peptide in PBS) | characteristic bound-state lifetime, long component ([3]; double-exponential fit of bright times, all recorded particles, 20 ms exposure, 50 mW 637 nm laser, TIRF, 1 nM labeled peptide in PBS, less frequent events) | k on ([3]; linear fit of event frequency vs average number of proteins per particle, kon=1/tdcin, 60 ms exposure, 50 mW, 1 nM labeled peptide in PBS) | slope of binding event frequency vs number of proteins per particle ([3]; linear fit, intercept 0, 60 ms exposure, 1 nM labeled peptide in PBS) | k on (previously reported) (PDZ; PAINT experiments) | k off (previously reported) (PDZ; same interaction with immobilized peptides, integration time 60 ms) | peptide binding of directly conjugated PDZ [4] | event frequency on control particles (unspecific binding) [5]
1 | NC(N)=O [urea] | slight increase | ≤ 1 min | no significant deviations | did not significantly change | recovered toward initial levels | terminates the occurrence of PDZ-peptide interactions | no reduced fluorescence intensities |  |  |  |  |  |  |  |  | 
2 | H-[C(ATTO655)]GAGRGSIDTWV-OH [ATTO 655-labeled peptide, Atto-655 labeled peptide purchased from SB Peptide] |  |  |  |  |  |  |  | double exponential | 16 ± 1 ms | 83 ± 16 ms | (1.2 ± 0.1) × 10^7 M^–1 s^–1 | 12 mHz/protein | ≈ 3.6 × 10^5 M^–1 s^–1 | ≈ 6.3 s^–1 | no peptide binding | 2 mHz

From publication PMC12311895, “Single-Molecule Protein Interactions and Unfolding Revealed by Plasmon-Enhanced Fluorescence” (Analytical Chemistry, 2025)
